This note sets out measurements from PubChem BioAssay AID720667 (NMMLSC, 2013).

Broadly, the inhibition is the drop in the measured response relative to a control, in per cent.

Active and inactive are the calls of the source.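 The calls were made as follows: active = over 50% inhibition of phosphorylation of either protein kinase C substrates or the ERK kinase; inactive = both inhibited below 50%.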

This assay concerns TALL-104 cells, ERK phosphorylation flow cytometry. As to the kind of experiment: blockers of stimulated ERK phosphorylation in TALL-104 – TALL-104 cells, flow cytometry, CherryPick01, mechanism study for lytic granule exocytosis inhibitor project, late-stage follow-up (AID 720667). The settings on record: hits give high values; dose or concentration not given here.

As to `O=C(Cn1sc2ccccc2c1=O)NC12CC3CC(CC(C3)C1)C2`, the inhibition is 35.6% (inactive).
In the case of `CCN(CC)CCCNc1ccc(-c2nnc(-c3ccc(OCC(C)C)cc3)o2)cn1` it was -22.6% (inactive).
In the case of `CC1=NOC(=O)/C1=C/c1ccc(-c2ccc(Cl)cc2)o1` it was 40.3% (inactive).
Turning to `Cc1cc(N2CCN(c3nc(-c4ccc([N+](=O)[O-])cc4)cs3)CC2)c2ccccc2n1`, the inhibition was 78.9%.
Consider `CCCCC[C@@H](C)N1C[C@@H](COCc2ccccc2)Oc2cc(N3CC[C@@H](N(C)C)C3)ccc2S1(=O)=O`, for which the inhibition is 51.1%.
Take `CCOC(=O)c1c(NC(=O)COc2ccccc2OCC)sc2c1CC(C)(C)NC2(C)C`: the inhibition was 87.3%.
With `COc1ccc(-c2cc(NC=O)c3ncc(-c4ccccc4)n3c2)cc1OC` the figure was -2.1% (inactive); with `COc1ccccc1CNc1nc(NCc2ccc(C(C)C)cc2)c2sccc2n1`, -14.8% (inactive).
With `O=C(CN1C(=O)/C(=C\c2cccc(Br)c2)Oc2ccccc21)NCCCN1CCOCC1` the figure was 8% (inactive); with `N#Cc1c(Nc2ccccc2Cl)s[nH]c1=O`, 66.4%.
With `O=C1CC(Sc2nnnn2-c2ccccc2)C(=O)N1c1cccc(Cl)c1` (configuration not stated) the figure was 67.2%; with `Cc1ccc(Nc2nc(NCc3ccco3)c3ccccc3n2)cc1`, 1.1% (inactive).
Take `CN(C)CCNC(=O)c1ccc(-c2cn3c(-c4ccc(Oc5ccccc5)cc4)cnc3cn2)cc1`: the inhibition is -0.1% (inactive).
As for `CC1=C(C)CS(=O)N(S(=O)(=O)c2ccc(Cl)cc2)C1` (configuration not stated), the inhibition was 83.8%.
With `O=c1c2ccc(F)cc2sn1-c1ccccc1` the figure was 53.4%; with `COc1ccc(-n2sc3ccccc3c2=O)cc1`, 35% (inactive).
`COc1ccc(-c2cc(NC=O)c3ncc(-c4cccc(OC)c4)n3c2)cc1`: the inhibition was -18.8% (inactive).
In the case of `COc1ccc(N2C(=O)CC(Sc3nnc(-c4ccccc4)o3)C2=O)cc1` (configuration not stated) it was 17.4% (inactive); in that of `CCCCC[C@@H](C)N1C[C@@H](COCc2ccccc2)Oc2cc(N3CC[C@H](N(C)C)C3)ccc2S1(=O)=O`, 28% (inactive); in that of `COC(=O)c1c(NC(=O)c2nc3ccccc3s2)sc2c1CC(C)(C)NC2(C)C`, 11.8% (inactive).
With `Cc1ccc(S(=O)(=O)n2ccc3c(OCCOCCNCc4ccc(F)cc4)cccc32)cc1` the figure was -8.2% (inactive); with `O=C(Cn1sc2ccccc2c1=O)Nc1ccc(F)cc1`, 18.2% (inactive).
As to `O=c1c2ccccc2sn1-c1ccccc1`, the inhibition was 37.9% (inactive).
For the compound `CC1COCC(C)N1C1=C(Cl)C(=O)c2ccccc2C1=O` (configuration not stated), the inhibition was -16.4% (inactive).
With `CCCCC[C@@H](C)N1C[C@H](COCc2ccccc2)Oc2cc(N3CC[C@@H](N(C)C)C3)ccc2S1(=O)=O`, the inhibition was 37.2% (inactive).
With `O=CNc1cc(-c2ccsc2)cn2c(-c3ccccc3)cnc12` the figure was -17.6% (inactive); with `CC(C)(c1ccccc1)c1ccc(OCC(O)CNC2CCN(Cc3ccccc3)CC2)cc1` (configuration not stated), 36.4% (inactive).
